The text below walks through data of publication PMC12150210 (RSC Advances, 2025).

This test has as its target hCG (whole human chorionic gonadotropin) (Homo sapiens, UniProt P0DN86). As to the kind of experiment: microscale thermophoresis. Format: binding.

For orientation: Kd means the equilibrium constant for the complex coming apart. `CO[C@@]1(NC(=O)C2SC(=C(C(N)=O)C(=O)O)S2)C(=O)N2C(C(=O)O)=C(CSc3nnnn3C)CS[C@@H]21` (stereo partly drawn) [Cefotetan, (6R,7S)-7-[[4-(2-amino-1-carboxy-2-oxoethylidene)-1,3-dithietane-2-carbonyl]amino]-7-methoxy-3-[(1-methyltetrazol-5-yl)sulfanylmethyl]-8-oxo-5-thia-1-azabicyclo[4.2.0]oct-2-ene-2-carboxylic acid] showed a Kd of 4.6 ± 3 µM.
